ChEMBL document CHEMBL5113489, “Design, synthesis, and biological evaluation of membrane-active honokiol derivatives as potent antibacterial agents” (Eur J Med Chem, 2022)
Converted amounts (≈) assume the structure as drawn.

Experiments:
[1] = tested on: Pseudomonas aeruginosa; assay: Antibacterial activity against Pseudomonas aeruginosa ATCC 27853; assay type: functional
[2] = tested on: Staphylococcus aureus; assay: Antibacterial activity against Staphylococcus aureus ATCC 25923; assay type: functional
[3] = tested on: Escherichia coli; assay: Antibacterial activity against Escherichia coli ATCC 25922; assay type: functional
[4] = tested on: Staphylococcus aureus; assay: Antibacterial activity against Staphylococcus aureus ATCC 31007; assay type: functional
[5] = tested on: Staphylococcus aureus; assay: Antibacterial activity against Staphylococcus aureus ATCC 43300; assay type: functional
[6] = tested on: Bacillus subtilis; assay: Antibacterial activity against Bacillus subtilis ATCC 9372; assay type: functional
[7] = tested on: Staphylococcus aureus; assay: Antibacterial activity against Staphylococcus aureus ATCC 43300 assessed as resistance development by measuring fold increase in MIC; assay type: functional
[8] = Selectivity index, ratio of HC50 for hemolytic activity in sheep RBC to MIC for antibacterial activity against Staphylococcus aureus ATCC 43300; assay type: toxicity; details: sheep red blood cells (erythrocytes)
[9] = Hemolytic activity in sheep RBC; assay type: toxicity, cell-based, Ovis aries, Erythrocyte; details: sheep red blood cells (erythrocytes)
[10] = tested on: Escherichia coli; assay: Antibacterial activity against Escherichia coli ATCC 25922 assessed as resistance development by measuring fold increase in MIC; assay type: functional
[11] = tested on: Staphylococcus aureus; assay: In vivo antibacterial activity against Staphylococcus aureus ATCC 43300 in septicemia mouse model assessed as log reduction in bacterial load in liver at 5 mg/kg, administered every 12 hrs for 3 days; assay type: functional
[12] = tested on: Staphylococcus aureus; assay: In vivo antibacterial activity against Staphylococcus aureus ATCC 43300 in septicemia mouse model assessed as log reduction in bacterial load in kidney at 5 mg/kg, administered every 12 hrs for 3 days; assay type: functional
[13] = tested on: Staphylococcus aureus; assay: In vivo antibacterial activity against Staphylococcus aureus ATCC 43300 in septicemia mouse model assessed as log reduction in bacterial load in spleen at 5 mg/kg, administered every 12 hrs for 3 days; assay type: functional

MIC [1]	MIC [2]	MIC [3]	MIC [4]	MIC [5]	MIC [6]	Molecule	fold change (FC) [7]	selectivity ratio [8]	HC50 [9]	fold change (FC) [10]	log(activity) [11]	log(activity) [12]	log(activity) [13]
> 128 µg/mL	32 µg/mL	> 128 µg/mL	32 µg/mL	16 µg/mL	8 µg/mL	C=CCc1ccc(OCC(=O)NC(CCCCN)C(=O)NCc2ccc(-c3ccccc3)cc2)c(-c2ccc(OCC(=O)NC(CCCCN)C(=O)NCc3ccc(-c4ccccc4)cc3)c(CC=C)c2)c1.O=C(O)C(F)(F)F.O=C(O)C(F)(F)F (stereo not given)	–	–	–	–	–	–	–
32 µg/mL	16 µg/mL	32 µg/mL	32 µg/mL	16 µg/mL	8 µg/mL	C=CCc1ccc(OCC(=O)NC(CCCCN)C(=O)NCCCC)c(-c2ccc(OCC(=O)NC(CCCCN)C(=O)NCCCC)c(CC=C)c2)c1.O=C(O)C(F)(F)F.O=C(O)C(F)(F)F (stereo not given)	–	–	–	–	–	–	–
16 µg/mL	4 µg/mL	16 µg/mL	8 µg/mL	4 µg/mL	4 µg/mL	C=CCc1ccc(OCC(=O)NC(CCCCN)C(=O)NCCCCCCCCCC)c(-c2ccc(OCC(=O)NC(CCCCN)C(=O)NCCCCCCCCCC)c(CC=C)c2)c1.O=C(O)C(F)(F)F.O=C(O)C(F)(F)F (stereo not given)	–	> 320	> 1280 µg/mL	–	–	–	–
> 128 µg/mL	8 µg/mL	> 128 µg/mL	4 µg/mL	4 µg/mL	4 µg/mL	C=CCc1ccc(OCC(=O)NC(CCCCN)C(=O)NCC23CC4CC(CC(C4)C2)C3)c(-c2ccc(OCC(=O)NC(CCCCN)C(=O)NCC34CC5CC(CC(C5)C3)C4)c(CC=C)c2)c1.O=C(O)C(F)(F)F.O=C(O)C(F)(F)F (stereo not given)	–	> 320	1280 µg/mL	–	–	–	–
64 µg/mL	32 µg/mL	128 µg/mL	64 µg/mL	32 µg/mL	128 µg/mL	C=CCc1ccc(OCC(=O)NCCCCN)c(-c2ccc(OCC(=O)NCCCCN)c(CC=C)c2)c1.O=C(O)C(F)(F)F.O=C(O)C(F)(F)F	–	–	–	–	–	–	–
> 128 µg/mL	128 µg/mL	> 128 µg/mL	64 µg/mL	64 µg/mL	> 128 µg/mL	C=CCc1ccc(OCC(=O)NC(CCCCN)C(=O)NCCCCCCCCCCCC)c(-c2ccc(OCC(=O)NC(CCCCN)C(=O)NCCCCCCCCCCCC)c(CC=C)c2)c1.O=C(O)C(F)(F)F.O=C(O)C(F)(F)F (stereo not given)	–	–	–	–	–	–	–
> 128 µg/mL	8 µg/mL	128 µg/mL	16 µg/mL	4 µg/mL	4 µg/mL	C=CCc1ccc(OCC(=O)NC(CCCCN)C(=O)NCc2ccc(C(C)(C)C)cc2)c(-c2ccc(OCC(=O)NC(CCCCN)C(=O)NCc3ccc(C(C)(C)C)cc3)c(CC=C)c2)c1.O=C(O)C(F)(F)F.O=C(O)C(F)(F)F (stereo not given)	–	–	–	–	–	–	–
128 µg/mL	32 µg/mL	64 µg/mL	32 µg/mL	32 µg/mL	128 µg/mL	C=CCc1ccc(OCC(=O)NCCN)c(-c2ccc(OCC(=O)NCCN)c(CC=C)c2)c1.O=C(O)C(F)(F)F.O=C(O)C(F)(F)F	–	–	–	–	–	–	–
128 µg/mL	8 µg/mL	32 µg/mL	8 µg/mL	4 µg/mL	32 µg/mL	C=CCc1ccc(OCC(=O)NCCC[N+](C)(C)CCCCCCCCCCCC)c(-c2ccc(OCC(=O)NCCC[N+](C)(C)CCCCCCCCCCCC)c(CC=C)c2)c1.[Br-].[Br-]	–	–	–	–	–	–	–
128 µg/mL	16 µg/mL	64 µg/mL	16 µg/mL	8 µg/mL	8 µg/mL	C=CCc1ccc(OCC(=O)NC(CCCCN)C(=O)NCCCCCCCC)c(-c2ccc(OCC(=O)NC(CCCCN)C(=O)NCCCCCCCC)c(CC=C)c2)c1.O=C(O)C(F)(F)F.O=C(O)C(F)(F)F (stereo not given)	–	–	–	–	–	–	–
16 µg/mL	2 µg/mL	8 µg/mL	4 µg/mL	2 µg/mL	4 µg/mL	C=CCc1ccc(OCC(=O)NCCC[N+](C)(C)CCCCCCCC)c(-c2ccc(OCC(=O)NCCC[N+](C)(C)CCCCCCCC)c(CC=C)c2)c1.[Br-].[Br-]	–	61.5	123 µg/mL	–	–	–	–
> 128 µg/mL	16 µg/mL	> 128 µg/mL	128 µg/mL	> 128 µg/mL	> 128 µg/mL	C=CCc1ccc(OCCC[N+](C)(C)CCCCCCCCCCCCCC)c(-c2ccc(OCCC[N+](C)(C)CCCCCCCCCCCCCC)c(CC=C)c2)c1.[Br-].[Br-]	–	–	–	–	–	–	–
128 µg/mL	2 µg/mL	32 µg/mL	4 µg/mL	4 µg/mL	8 µg/mL	C=CCc1ccc(OCC(=O)NCCC[N+](C)(C)CCCCCCCCCC)c(-c2ccc(OCC(=O)NCCC[N+](C)(C)CCCCCCCCCC)c(CC=C)c2)c1.[Br-].[Br-]	–	13.2	53 µg/mL	–	–	–	–
64 µg/mL	32 µg/mL	128 µg/mL	64 µg/mL	64 µg/mL	> 128 µg/mL	C=CCc1ccc(OCC(=O)NCCCN)c(-c2ccc(OCC(=O)NCCCN)c(CC=C)c2)c1.O=C(O)C(F)(F)F.O=C(O)C(F)(F)F	–	–	–	–	–	–	–
16 µg/mL	8 µg/mL	16 µg/mL	8 µg/mL	8 µg/mL	8 µg/mL	C=CCc1ccc(OCC(=O)NC(CCCCN)C(=O)NCCCCCC)c(-c2ccc(OCC(=O)NC(CCCCN)C(=O)NCCCCCC)c(CC=C)c2)c1.O=C(O)C(F)(F)F.O=C(O)C(F)(F)F (stereo not given)	–	62.7	502 µg/mL	–	–	–	–

Second part, the molecule before the results:

Molecule	MIC [1]	MIC [2]	MIC [3]	MIC [4]	MIC [5]	MIC [6]	fold change (FC) [7]	selectivity ratio [8]	HC50 [9]	fold change (FC) [10]	log(activity) [11]	log(activity) [12]	log(activity) [13]
CCn1cc(C(=O)O)c(=O)c2cc(F)c(N3CCNCC3)cc21 [NORFLOXACIN]	–	–	–	–	–	–	256	–	–	–	–	–	–
C=CCc1ccc(OCC(=O)NCCC[N+](C)(C)CCCCCC)c(-c2ccc(OCC(=O)NCCC[N+](C)(C)CCCCCC)c(CC=C)c2)c1.[Br-].[Br-]	128 µg/mL	8 µg/mL	16 µg/mL	16 µg/mL	16 µg/mL	16 µg/mL	–	11.4	183 µg/mL	–	–	–	–
C=CCc1ccc(OCC(=O)NCCCN(C)C)c(-c2ccc(OCC(=O)NCCCN(C)C)c(CC=C)c2)c1	> 128 µg/mL	128 µg/mL (≈ 232 µM)	> 128 µg/mL	128 µg/mL (≈ 232 µM)	> 128 µg/mL	> 128 µg/mL	–	–	–	–	–	–	–
C=CCc1ccc(OCCC[N+](C)(C)CCCC)c(-c2ccc(OCCC[N+](C)(C)CCCC)c(CC=C)c2)c1.[Br-].[Br-]	128 µg/mL	4 µg/mL	16 µg/mL	8 µg/mL	4 µg/mL	4 µg/mL	–	295	1180 µg/mL	–	–	–	–
CN[C@H](CC(C)C)C(=O)N[C@H]1C(=O)N[C@@H](CC(N)=O)C(=O)N[C@H]2C(=O)N[C@H]3C(=O)N[C@H](C(=O)N[C@H](C(=O)O)c4cc(O)cc(O)c4-c4cc3ccc4O)[C@H](O)c3ccc(c(Cl)c3)Oc3cc2cc(c3O[C@@H]2O[C@H](CO)[C@@H](O)[C@H](O)[C@H]2O[C@H]2C[C@](C)(N)[C@H](O)[C@H](C)O2)Oc2ccc(cc2Cl)[C@H]1O [VANCOMYCIN]	> 128 µg/mL	–	> 128 µg/mL	–	–	0.5 µg/mL (≈ 0.345 µM)	–	–	–	–	–	–	–
COLISTIN	1 µg/mL	64 µg/mL	2 µg/mL	128 µg/mL	64 µg/mL	8 µg/mL	–	–	–	64	–	–	–
C=CCc1ccc(OCCCN)c(-c2ccc(OCCCN)c(CC=C)c2)c1.Cl.Cl	64 µg/mL	4 µg/mL	> 128 µg/mL	8 µg/mL	4 µg/mL	32 µg/mL	–	110	438 µg/mL	–	–	–	–
C=CCc1ccc(OCCC[N+](C)(C)CCCCCCCCCCCC)c(-c2ccc(OCCC[N+](C)(C)CCCCCCCCCCCC)c(CC=C)c2)c1.[Br-].[Br-]	> 128 µg/mL	128 µg/mL	> 128 µg/mL	128 µg/mL	> 128 µg/mL	> 128 µg/mL	–	–	–	–	–	–	–
C=CCc1ccc(OCCC[N+](C)(C)CCCCCCCC)c(-c2ccc(OCCC[N+](C)(C)CCCCCCCC)c(CC=C)c2)c1.[Br-].[Br-]	16 µg/mL	2 µg/mL	8 µg/mL	2 µg/mL	2 µg/mL	1 µg/mL	–	18	36 µg/mL	–	–	–	–
C=CCc1ccc(OCCN)c(-c2ccc(OCCN)c(CC=C)c2)c1.Cl.Cl	64 µg/mL	8 µg/mL	16 µg/mL	16 µg/mL	8 µg/mL	32 µg/mL	–	86.7	694 µg/mL	–	–	–	–
C=CCc1ccc(O)c(-c2ccc(O)c(CC=C)c2)c1 [HONOKIOL]	> 128 µg/mL	64 µg/mL (≈ 240 µM)	> 128 µg/mL	64 µg/mL (≈ 240 µM)	128 µg/mL (≈ 481 µM)	32 µg/mL (≈ 120 µM)	–	–	–	–	–	–	–
C=CCc1ccc(OCC(=O)NCCC[N+](C)(C)C)c(-c2ccc(OCC(=O)NCCC[N+](C)(C)C)c(CC=C)c2)c1.[I-].[I-]	> 128 µg/mL	64 µg/mL	16 µg/mL	128 µg/mL	> 128 µg/mL	> 128 µg/mL	–	–	–	–	–	–	–
O=C(O)c1cn(C2CC2)c2cc(N3CCNCC3)c(F)cc2c1=O [CIPROFLOXACIN]	–	–	–	–	–	–	–	–	–	–	2.01	1.56	1.52
C=CCc1ccc(OCCC[N+](C)(C)CCCCCCCCCC)c(-c2ccc(OCCC[N+](C)(C)CCCCCCCCCC)c(CC=C)c2)c1.[Br-].[Br-]	> 128 µg/mL	16 µg/mL	> 128 µg/mL	32 µg/mL	4 µg/mL	2 µg/mL	–	–	–	–	–	–	–
C=CCc1ccc(OCC(=O)NCCC[N+](C)(C)CCCC)c(-c2ccc(OCC(=O)NCCC[N+](C)(C)CCCC)c(CC=C)c2)c1.[Br-].[Br-]	> 128 µg/mL	64 µg/mL	128 µg/mL	128 µg/mL	128 µg/mL	> 128 µg/mL	–	–	–	–	–	–	–
